Assay results: patent publication US11865098B1, “Methods and compositions for treating excessive sleepiness” (Axsome Malta Ltd., priority 2017, dated 2024)

Test system: adult patients with OSA and ES
Experiment: EQ-5D-5L, 12-week parallel study in OSA
Type: in vivo, human
Conditions: week 12
Description: This was a 12-week, double-blind, placebo-controlled, parallel-design study. Patients were randomized (1:1:2:2:2) to APC 37.5 mg, 75 mg, 150 mg, or 300 mg, or placebo for 12 weeks, and were stratified by adherence or nonadherence with primary OSA therapy.
The SF-36 v2 consists of 2 summary scales (Physical Component Summary and Mental Component Summary) and 8 specific health status domains (Physical Function, Role Physical, Bodily Pain, General Health, Vitality, Social Functioning, Role Emotional, Mental Health) (Ware Jr et al., User's Manual for the SF-36v2™ Health Survey (2nd ed). QualityMetric Incorporated (Lincoln, RI); 2007). […]
Efficacy analyses were based on the modified intent-to-treat (mITT) population; there was no multiplicity adjustment for the SF-36 v2 or EQ-5D-5L. SF-36 v2 scores were scaled from 0 to 100 (higher scores on all scales represent better health), transformed to norm-based scores using US general-population data from SF-36 Manuals (Ware Jr et al., User's Manual for the SF-36v2™ Health Survey (2nd ed.). QualityMetric Incorporated (Lincoln, RI); 2007), and were analyzed using a mixed-effect model with repeated measures (MMRM); and baseline value of the efficacy endpoint was used to determine differences in changes from baseline. EQ-5D-5L VAS and index-score data were analyzed using an MMRM model. […]

NC(=O)OC[C@H](N)Cc1ccccc1 [JZP-110, (R)-2-amino-3-phenylpropyl carbamate]
EQ-5D-5L index value, effect: no significant effects | EQ-5D VAS, effect vs placebo (appeared dose dependent): not significantly different from placebo
